Data reported in patent US7678918B2, “Intermediates for imidazonaphthyridines” (3M Innovative Properties Company, priority 1997, dated 2010).

How the values were obtained:
IFN = test: Cytokine Induction in Human Cells: interferon (IFN) secreted by PBMCs, A549/encephalomyocarditis bioassay; assay type: cell-based; conditions: 18 to 24 hours
Description: (§1) An in vitro human blood cell system was used to assess cytokine induction by compounds of the invention. Activity is based on the measurement of interferon and tumor necrosis factor (ℑ) (IFN and TNF, respectively) secreted into culture media as described by Testerman et. al. In “Cytokine Induction by the Immunomodulators Imiquimod and S-27609”, Journal of Leukocyte Biology, 58, 365-372 (September, 1995). Blood Cell Preparation for Culture
(§2) Whole blood is collected by venipuncture into EDTA vacutainer tubes from healthy human donors. Peripheral blood mononuclear cells (PBMCs) are separated from whole blood by Histopaque®-1077 (Sigma Chemicals, St. Louis, Mo.) density gradient centrifugation. The PBMCs are suspended at 1.5-2×10^6 cells/mL in RPMI 1640 medium containing 10% fetal bovine serum, 2 mM L-glutamine and 1% penicillin/streptomycin solution (RPMI complete). 1 mL portions of PBMC suspension are added to 24 well flat bottom sterile tissue culture plates.
(§3) The compounds are solubilized in dimethyl sulfoxide (DMSO). The DMSO concentration should not exceed a final concentration of 1% for addition to the culture wells. The compounds are generally tested in a concentration range of from 0.1 to 100 μM.
(§4) The solution of test compound is added to the wells containing 1 mL of PBMCs in media. The plates are covered with plastic lids, mixed gently and then incubated for 18 to 24 hours at 37° C. with a 5% carbon dioxide atmosphere.
(§5) Following incubation the plates are centrifuged for 5-10 minutes at 1000 rpm (˜200×g) at 4° C. The cell culture supernatant is removed with a sterile polypropylene pipet and transferred to a 2 mL sterile cryotube. Samples are maintained at −70° C. until analysis.
Interferon is determined by bioassay using A549 human lung carcinoma cells challenged with encephalomyocarditis. The details of the bioassay method have been described by G. L. Brennan and L. H. Kronenberg in “Automated Bioassay of Interferons in Micro-test Plates”, Biotechniques, June/July 78, 1983, incorporated herein by reference. Briefly stated the method is as follows: A549 cells are incubated with samples and standard interferon dilutions at 37° C. for 24 hours. The incubated cells are then infected with an inoculum of encephalomyocarditis virus. The infected cells are incubated for an additional 24 hours at 37° C. before quantifying for viral cytopathic effect. The viral cytopathic effect is quantified by staining followed by visual scoring of the plates. Results are expressed as alpha reference units/mL based on the value obtained for NIH Human Leukocyte IFN standard.

TNF = test: Cytokine Induction in Human Cells: tumor necrosis factor (TNF) secreted by PBMCs, ELISA; assay type: cell-based; conditions: 18 to 24 hours
Description: as §1, §2, §3, §4, §5
Tumor necrosis factor (ℑ) (TNF) concentration is determined using an ELISA kit available from Genzyme, Cambridge, Mass. The results are expressed as pg/mL.
Further: call rule not given here.

SMILES	IFN induction (IFN; Dose Concentration 0.1 μM)	IFN induction (IFN; Dose Concentration 1.0 μM)	IFN induction (IFN; Dose Concentration 10.0 μM)	IFN induction (IFN; Dose Concentration 100.0 μM)	TNF induction (TNF; Dose Concentration 0.1 μM)	TNF induction (TNF; Dose Concentration 1.0 μM)	TNF induction (TNF; Dose Concentration 10.0 μM)	TNF induction (TNF; Dose Concentration 100.0 μM)
CCCCc1nc2c(N)nc3cccnc3c2n1CCNC(=O)c1ccc([N+](=O)[O-])o1 [Example 146]	+	+	+	−	+	+	+	+
CCCCc1nc2c(N)nc3cccnc3c2n1CCNC(=O)c1cccnc1Cl [Example 147]	−	+	+	+	−	−	+	+
CCCCCCCOc1ccc(C(=O)NCCn2c(CCCC)nc3c(N)nc4cccnc4c32)cc1 [Example 149]	−	−	−	−	−	−	−	−
CCCCc1nc2c(N)nc3cccnc3c2n1CCNC(=O)c1ccc(C(=O)OC)cc1 [Example 150]	−	−	+	+	−	−	+	+
CCCCc1nc2c(N)nc3cccnc3c2n1CCNC(=O)Cc1ccc(OC)cc1 [Example 152]	−	−	+	+	−	−	+	+
CCCCc1nc2c(N)nc3cccnc3c2n1CCCCNC(=O)c1cccc(Br)c1 [Example 153]	−	+	+	−	−	+	+	−
CCCCc1nc2c(N)nc3cccnc3c2n1CCCCNC(=O)C1(c2ccc(Cl)cc2)CCCC1 [Example 155]	−	+	+	+	−	−	+	+
CCCCc1nc2c(N)nc3cccnc3c2n1CCCCNC(=O)COCc1ccccc1 [Example 157]	+	+	+	−	−	−	+	−
CCCCc1nc2c(N)nc3cccnc3c2n1CCCCNC(=O)CCCCCCCCC(=O)OC [Example 158]	−	+	+	+	−	−	+	−
CCCCc1nc2c(N)nc3cccnc3c2n1CCCCNC(=O)CC1CCCC1 [Example 160]	+	+	+	−	−	+	+	−
CCCCc1nc2c(N)nc3cccnc3c2n1CCCCNC(=O)c1cc(C(F)(F)F)cc(C(F)(F)F)c1 [Example 161]	±	+	+	+	−	−	+	+
CCCCc1nc2c(N)nc3cccnc3c2n1CCCCNC(=O)c1cc(OC)c(OC)c(OC)c1 [Example 162]	+	+	+	+	−	+	+	+
CCCCc1nc2c(N)nc3cccnc3c2n1CCCCNC(=O)c1c(F)c(F)c(F)c(F)c1F [Example 163]	+	+	+	+	−	+	+	−
CCCCc1nc2c(N)nc3cccnc3c2n1CCCCNC(=O)c1ccc(F)cc1 [Example 166]	−	+	+	−	−	+	+	−
CCCCc1nc2c(N)nc3cccnc3c2n1CCCCNC(=O)CC(C)(C)C [Example 172]	+	+	+	+	−	+	+	+
CCCCc1nc2c(N)nc3cccnc3c2n1CCCCNC(=O)C1CC1 [Example 173]	+	+	+	+	−	+	+	+
CCCCc1nc2c(N)nc3cccnc3c2n1CCCCNC(=O)C1CCCC1 [Example 174]	+	+	+	+	+	+	+	−
CCCCc1nc2c(N)nc3cccnc3c2n1CCCCNC(=O)CCC1CCCC1 [Example 175]	−	+	+	−	−	+	+	−
CCCCc1nc2c(N)nc3cccnc3c2n1CCCCNC(=O)c1ccc(C#N)cc1 [Example 176]	−	+	+	+	−	−	+	+
